The nature of series [1]: Ulcerogenic effect (gastric mucosal lesions after oral dose). Type of series: in vivo, Ratten. The conditions noted are these: rat, gastric mucosa, fasted rats, killed 24 h after dose, UD50 by Litchfield and Wilcoxon, read-out: Ulzerogenität UD50. The text has this: (§1) Die Untersuchungen erfolgten an männlichen Sprague-Dawley Ratten im Körpergewicht zwischen 200 und 300 g. 48 Stunden vor Applikation der Testsubstanzen bis zum Töten der Tiere wurde das Futter entzogen, bei freiem Zugang zum Trinkwasser. Die Ratten wurden 24 Stunden nach oraler Gabe getötet, der Magen entommen, unter fließendem Wasser gereinigt und auf Schleimhautlösionen inspiziert. Als Ulzera galten alle makroskopisch sichtbaren Läsionen. Bestimmt wurde der Anteil der Tiere mit Ulzera pro dosi und die UD50 nach Litchfield und Wilcoxon (J. Pharmacol. exp. Ther. 96, 99 (1949)).

Series [2] relates to männliche Ratten eines Wistar-Lewis-Stammes. Description: Adjuvant arthritis, preventive test (method of Pearson). Type of series: in vivo. The conditions noted are these: for ED50: Rattus norvegicus, 408 h, read-out: Adjuvans-Arthritis ED50; for Therapeut. Index UD50 / ED50: ratio of ulcerogenic UD50 to adjuvant arthritis ED50. The source says: 1. Adjuvans-Arthritis, praeventive Testung
Die Untersuchungen wurden nach der Methode von Pearson durchgeführt (Arthrit. Rheum. 2, 440 (1959)). Als Versuchstiere dienten männliche Ratten eines Wistar-Lewis-Stammes im Körpergewicht zwischen 130 und 200 g. Die zu prüfenden Verbindungen wurden täglich vom 1. bis 17. Versuchstag oral appliziert. Tiere einer Kontrollgruppe erhielten nur das Lösungsmittel. Als Wirkungskriterium diente die Herabsetzung der Pfoten-Volumenzunahme gegenüber der unbehandelten Kontrollgruppe. Die ED50-Werte wurden graphisch aus der Dosiswirkungskurve bestimmt.

The nature of another series: Acute toxicity. To be noted: mouse, in vivo, ip; NMRI mice, intraperitoneal, mortality within 7 days; read-out: Toxizität LD50-Bereich (Maus i.p.). The text has this:
Die Bestimmung der LD50-Bereiche erfolgte standardgemäß über die innerhalb von 7 Tagen bei NMRI-Mäusen nach intraperitonealer Gabe auftretende Mortalität.

Series [3] has as its system männlichen Sprague-Dawley Ratten. As to the kind of experiment: Ulcerogenic effect (gastric mucosal lesions after oral dose). Type of series: in vivo. To be noted: fasted rats, killed 24 h after dose, UD50 by Litchfield and Wilcoxon.
Excerpt: as §1

The test system of the next series is NMRI-Mäusen. To be noted: literature value (Barnes and Eltherington, Drug Dosage in Laboratory Animals, 1973, p. 199); cited from earlier work.
[4] abbreviates: oral, daily from day 1 to 17, reduction of paw volume increase vs. control, ED50 read graphically from dose-response curve.

Marks after values point to notes of the source that are not given here.

Turning to `O=C(Nc1ccc(C(F)(F)F)cc1)c1cnoc1C(F)(F)F` [Beispiel 6, N-(4-Trifluormethylphenyl)-5-trifluormethylisoxazol-4-carboxamid], the TD50 at 24 h in series [1] worked out at 80 mg/kg. Further, in series [2] (setting [4]), the median effective dose (ED50) – broadly, the dose at which the effect has come halfway, by size or by number of responders – is 3 mg/kg. The “Therapeut. Index UD50 / ED50” value in series [2] is listed as 27.

As for `CCc1oncc1C(=O)Nc1ccc(C(F)(F)F)cc1` [Beispiel 1, N-(4-Trifluormethylphenyl)-5-äthylisoxazol-4-carboxamid], in series [1], the TD50 at 24 h stood at 70 mg/kg. Besides, the ED50 in series [2] (setting [4]) turned out to be 6 mg/kg. Besides, the “Therapeut. Index UD50 / ED50” value in series [2] was 12. For the same molecule, the LD50 – broadly, the dose expected to kill half of the subjects tested – at 168 h in “Acute toxicity” lay in the range of 150 to 300 mg/kg.

Turning to `Cc1oncc1C(=O)Nc1ccc(Oc2ccc(C(F)(F)F)cc2)cc1` [Beispiel 10, N-[4-(4-Trifluormethylphenoxy)-phenyl]-5-methylisoxazol-4-carboxamid], in series [1], the TD50 at 24 h was 230 mg/kg. In addition, the median effective dose (ED50) in series [2] (setting [4]) turned out to be 8 mg/kg. Besides, the “Therapeut. Index UD50 / ED50” value in series [2] is recorded as 29. The median lethal dose (LD50) at 168 h in the series “Acute toxicity” fell in the range of 150 to 300 mg/kg.

Turning to “Phenylbutazon [Phenyl=butazon, reference compound]”, in series [3], the “Ulzerogenität UD50” value is on record as 100 mg/kg. Further, the “Adjuvans-Arthritis ED50” value in series [2] (oral, daily from day 1 to 17, reduction of paw volume increase vs. control, ED50 read graphically from dose-response curve, 24480 min) is reported as 37 mg/kg. Also, the “Toxizität LD50 (Maus i.p.)” value in the series with NMRI-Mäusen was “LD50 = 336^* mg/kg”.

Turning to `Cc1oncc1C(=O)Nc1ccc(F)cc1` [P 25 24 959 Nr. 10, N-(4-Fluorphenyl)-5-methylisoxazol-4-carboxamid, reference compound], the TD50 at 24 h in series [1] was found to be 250 mg/kg. Besides, in series [2] (setting [4]), the ED50 came out at 15 mg/kg. Besides, the “Therapeut. Index UD50 / ED50” value in series [2] came to 17. In addition, in the series “Acute toxicity”, the 50% lethal dose (LD50) at 168 h is 200 to 400 mg/kg.

The values are drawn from patent publication EP0012435A2, “Isoxazole derivatives, process for their preparation, medicines containing them and intermediates required in this process” (HOECHST AKTIENGESELLSCHAFT, priority 1978, dated 1980).
